Test results from article PMC6550366, “High-Throughput Recovery and Characterization of Metagenome-Derived Glycoside Hydrolase-Containing Clones as a Resource for Biocatalyst Development” (mSystems, 2019).

Tested on: T1, C11-GH1
T1 construct: gene C11_GH1; Full ORF in pET28 (NdeI/XhoI), E. coli BL21(DE3), Ni-NTA; text says C-terminal His tag but reverse primer carries a stop codon; Primer-derived: N-term (M)VAFSDKFL (native GTG start), C-term SRNGKNL, nucleophile region LPLIITENGMADND
Test: fluorogenic hydrolysis, MU release
Type: biochemical
Conditions: 20 mM HEPES, 300 mM NaCl, pH 7.0, 37°C; read-out: Mean Km (mM) ± SD
Description: fluorogenic hydrolysis, MU release on C11-GH1

Which Km does the source give for Cc1cc(=O)oc2cc(O[C@@H]3O[C@H](CO)[C@H](O)[C@H](O)[C@H]3O)ccc12 [Gal MU] here?
The Km was 0.05 ± 0.02 mM.

For Cc1cc(=O)oc2cc(O[C@@H]3O[C@H](CN=[N+]=[N-])[C@@H](O)[C@H](O)[C@H]3O)ccc12 [6-N3-Glc MU], which Km is on record?
Its Km is 0.05 ± 0.01 mM.

With Cc1cc(=O)oc2cc(O[C@@H]3O[C@H](CN=[N+]=[N-])[C@H](O)[C@H](O)[C@H]3O)ccc12 [6-N3-Gal MU, 4-methylumbelliferyl 6-azido-6-deoxy-β-D-galactoside] as the compound, how does the Km read?
The Km was 0.1 ± 0.02 mM.

With Cc1cc(=O)oc2cc(O[C@@H]3O[C@H](CO)[C@@H](O)[C@H](O)[C@H]3O)ccc12 [Glc MU] as the compound, how does the Km read?
Its Km is 0.2 ± 0.03 mM.
